IC50 data for eight compounds are collected here from PubChem BioAssay AID1752 (Sanford-Burnham Center for Chemical Genomics, 2009).

pIC50: −log10 of the molar value. “And” between values parts separate entries of the source, which are not always exact repeats. Equal entries are not always repeated. The source made the active and inactive calls. No rule for the calls is given here.

For the experiment, the system named is PPC-1 cells, TRAIL-induced apoptosis potentiation. Nature of the experiment: TRAIL sensitization of PPC-1 cells, potency – analog series, SAR follow-up (AID 1752).

On to `CSc1nc(-c2ccccc2)nc(C(C)C)n1`, for which the IC50 was > 10 µM (inactive).

Take `COc1cc(-c2ccccc2)[nH]c(=S)n1`: the IC50 was > 10 µM (inactive).

As for `CCSc1nc(-c2ccccc2)cc(=O)[nH]1`, the IC50 is > 10 µM (inactive).

For the compound `CSc1nc(-c2ccc(C)cc2)nc(C(Cl)Cl)n1`, the pIC50 is 6.43 and 6.22.

As to `CSc1nc(-c2ccccc2)nc(-c2ccccc2)n1`, the IC50 was > 10 µM (inactive).

With `CC(Sc1nc(-c2ccccc2)cc(C(F)(F)F)n1)C(=O)N1CCCC1` (stereo not drawn), the IC50 was > 10 µM (inactive).

On to `CSc1nc(-c2ccccc2)nc(-c2ccccc2OC(C)=O)n1`, for which the IC50 was > 10 µM (inactive).

Regarding `CCSc1cc(N2CCCC2)nc(-c2ccc(Cl)cc2)n1`, the IC50 is > 10 µM (inactive).

In general, IC50 refers to the midpoint of a concentration-inhibition curve. What is called pIC50 is the negative decadic logarithm of the IC50, by convention in mol/L.
